Measured values reported in ChEMBL document CHEMBL5321287, “Discovery, Synthesis, and Evaluation of Novel Dual Inhibitors of a Vascular Endothelial Growth Factor Receptor and Poly(ADP-Ribose) Polymerase for BRCA Wild-Type Breast Cancer Therapy” (J Med Chem, 2023).
Active and inactive are the calls of the source. No cut-off for these calls is given here.

What was measured:
MDA-MB-231 [1] = assay: Antiproliferation activity against human MDA-MB-231 cells assessed as decrease in Ki67 expression at 4 uM incubated for 48 hrs in presence of 1:1 of compound:Olaparib by immunofluorescence analysis; format: functional, cell-based
MCF7 [2] = assay: Antiproliferation activity against human MCF7 cells assessed as decrease in Ki67 expression at 4 uM incubated for 48 hrs in presence of 1:1 of compound:Olaparib by immunofluorescence analysis; format: functional, cell-based
MDA-MB-231 [3] = assay: Induction of apoptosis in human MDA-MB-231 cells assessed as decrease in Bcl-2 level at 4 uM incubated for 2 days in presence of 1:1 of compound:Olaparib by immunoblot analysis; format: functional, cell-based; settings: time 2.0 day
MCF7 [4] = assay: Induction of apoptosis in human MCF7 cells assessed as increase in Bax level at 4 uM incubated for 2 days in presence of 1:1 of compound:Olaparib by immunoblot analysis; format: functional, cell-based; settings: time 2.0 day
MDA-MB-231 [5] = assay: Antimigratory activity in human MDA-MB-231 cells assessed as upregulation of E-cadherin level at 4 uM incubated for 2 days in presence of 1:1 of compound:Olaparib by immunoblot analysis; format: functional, cell-based; settings: time 2.0 day
MCF7 [6] = assay: Induction of DNA damage in human MCF7 cells assessed as increase in gamma-H2AX level at 4 uM incubated for 48 hrs in presence of 1:1 of compound:Olaparib by DAPI staining based immunofluorescence analysis; format: functional, cell-based
MDA-MB-231 [7] = assay: Induction of HR DNA repair in human MDA-MB-231 cells assessed as decrease in RAD51 level at 4 uM incubated for 48 hrs in presence of 1:1 of compound:Olaparib by DAPI staining based immunofluorescence analysis; format: functional, cell-based
MDA-MB-231 [8] = assay: Antiproliferation activity against human MDA-MB-231 cells xenografted in BALB/c nude mouse assessed as decrease in Ki67 expression at 50 mg/kg, po for 14 days in presence of 1:1 of compound:Olaparib by H and E staining based IHC analysis; format: functional, organism-based; settings: time 14.0 day
MDA-MB-231 [9] = assay: Antimigratory activity in human MDA-MB-231 cells xenografted in BALB/c nude mouse assessed as downregulation of MMP2 level at 50 mg/kg, po for 14 days in presence of 1:1 of compound:Olaparib by H and E staining based IHC analysis; format: functional, organism-based; settings: time 14.0 day
MDA-MB-231 [10] = assay: Antimigratory activity in human MDA-MB-231 cells xenografted in BALB/c nude mouse assessed as upregulation of E-cadherin level at 50 mg/kg, po for 14 days in presence of 1:1 of compound:Olaparib by H and E staining based IHC analysis; format: functional, organism-based; settings: time 14.0 day
MDA-MB-231 [11] = assay: Induction of HR DNA repair in human MDA-MB-231 cells xenografted in BALB/c nude mouse assessed as decrease in FOXM1 level at 50 mg/kg, po for 14 days in presence of 1:1 of compound:Olaparib by Western blot analysis; format: functional, organism-based; settings: time 14.0 day
[12] = biological target: Vascular endothelial growth factor receptor 2 (Homo sapiens, UniProt P35968); settings: MDA-MB-231, dose 25-50 mg/kg, route po, time 14.0 day
HCC1937 = assay: cells; settings: Homo sapiens
MCF7 [13] = assay: cells; settings: Homo sapiens

Vascular endothelial growth factor receptor 2, sequence (P35968 whole entry): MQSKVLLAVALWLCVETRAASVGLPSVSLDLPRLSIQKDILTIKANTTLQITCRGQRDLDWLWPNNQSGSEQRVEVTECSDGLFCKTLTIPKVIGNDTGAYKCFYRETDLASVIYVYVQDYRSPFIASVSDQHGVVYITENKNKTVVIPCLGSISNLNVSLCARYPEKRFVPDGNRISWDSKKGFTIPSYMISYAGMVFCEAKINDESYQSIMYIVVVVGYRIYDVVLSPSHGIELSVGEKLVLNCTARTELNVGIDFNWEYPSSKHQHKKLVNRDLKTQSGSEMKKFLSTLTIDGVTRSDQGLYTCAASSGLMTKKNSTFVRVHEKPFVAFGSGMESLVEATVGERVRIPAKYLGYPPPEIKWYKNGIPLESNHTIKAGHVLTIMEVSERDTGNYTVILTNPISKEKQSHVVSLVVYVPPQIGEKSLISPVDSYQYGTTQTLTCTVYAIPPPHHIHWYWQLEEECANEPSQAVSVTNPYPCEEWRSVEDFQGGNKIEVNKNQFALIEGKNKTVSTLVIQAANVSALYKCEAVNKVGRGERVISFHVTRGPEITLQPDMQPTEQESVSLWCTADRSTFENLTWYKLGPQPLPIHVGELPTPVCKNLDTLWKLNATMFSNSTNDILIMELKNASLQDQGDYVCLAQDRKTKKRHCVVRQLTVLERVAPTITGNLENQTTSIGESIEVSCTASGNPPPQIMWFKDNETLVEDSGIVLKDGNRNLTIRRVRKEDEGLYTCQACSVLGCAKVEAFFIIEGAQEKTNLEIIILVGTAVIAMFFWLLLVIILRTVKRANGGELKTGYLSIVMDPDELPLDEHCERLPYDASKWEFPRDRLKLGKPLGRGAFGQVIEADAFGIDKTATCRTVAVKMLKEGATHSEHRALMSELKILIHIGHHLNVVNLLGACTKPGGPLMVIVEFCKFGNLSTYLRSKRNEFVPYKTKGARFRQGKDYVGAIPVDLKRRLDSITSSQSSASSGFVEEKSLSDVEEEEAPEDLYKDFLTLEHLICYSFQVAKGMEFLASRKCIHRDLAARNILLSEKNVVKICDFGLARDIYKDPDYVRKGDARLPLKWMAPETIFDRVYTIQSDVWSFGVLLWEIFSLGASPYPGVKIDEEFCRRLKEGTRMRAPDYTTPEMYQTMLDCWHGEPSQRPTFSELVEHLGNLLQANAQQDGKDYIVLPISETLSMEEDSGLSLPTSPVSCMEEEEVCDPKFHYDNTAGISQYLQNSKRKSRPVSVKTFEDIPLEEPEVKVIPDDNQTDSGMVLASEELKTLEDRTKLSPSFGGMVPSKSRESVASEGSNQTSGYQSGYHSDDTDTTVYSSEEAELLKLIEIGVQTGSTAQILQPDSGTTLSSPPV

inhibition [12]: Active
IC50 (HCC1937): > 10 µM
IC50 (MCF7 [13]): > 10 µM
SMILES: Cc1ccc(Nc2nccc(N(C)c3ccc4c(C)n(C)nc4c3)n2)cc1S(N)(=O)=O [PAZOPANIB]
Activity (MDA-MB-231 [1]): Active
Activity (MCF7 [2]): Active
Activity (MDA-MB-231 [3]): Active
Activity (MCF7 [4]): Active
Activity (MDA-MB-231 [5]): Active
Activity (MCF7 [6]): Active
Activity (MDA-MB-231 [7]): Active
Activity (MDA-MB-231 [8]): Active
Activity (MDA-MB-231 [9]): Active
Activity (MDA-MB-231 [10]): Active
Activity (MDA-MB-231 [11]): Active
